Starred links: 1 amine or outer side, 2 acyl side, 3 side chain; linkers in the order of their positions; H or OH if unused. Positions of bridges follow the written chain, without caps; N, C: chain ends. Non-standard residues stand in square brackets, D forms with d. Residues, ends and D or L forms follow the SMILES beside them. *: point of attachment. hPhe(3-Cl-4-CF3) = N[C@@H](CCc1ccc(C(F)(F)F)c(Cl)c1)C(=O)O; NMePhe(4-CF3) = CN[C@@H](Cc1ccc(C(F)(F)F)cc1)C(=O)O; X25 = CN([C@@H](Cc1ccc(C(F)F)cc1)C(=O)[*:2])[*:1]; 3Oxa8azabicyclo(3.2.1)octane = C1CC2COCC1N2*; NMePhe(4-Me) = CN[C@@H](Cc1ccc(C)cc1)C(=O)O; NMePhe(2-Me) = CN[C@@H](Cc1ccccc1C)C(=O)O; NMeAla(cPent) = CN[C@@H](CC1CCCC1)C(=O)O; NMeGly(cPent) = CN[C@H](C(=O)O)C1CCCC1; NMe4Pal = CN[C@@H](Cc1ccncc1)C(=O)O; NMeCha = CN[C@@H](CC1CCCCC1)C(=O)O; NMeChg = CN[C@H](C(=O)O)C1CCCCC1; NMeI = CC[C@H](C)[C@H](NC)C(=O)O; NMeE = CN[C@@H](CCC(=O)O)C(=O)O; NMeD = CN[C@@H](CC(=O)O)C(=O)O; NMeL = CN[C@@H](CC(C)C)C(=O)O; NMeNva = CCC[C@H](NC)C(=O)O; NMeV = CN[C@H](C(=O)O)C(C)C; NMeAbu = CC[C@H](NC)C(=O)O; NMeS = CN[C@@H](CO)C(=O)O; Morpholide = C1CN(*)CCO1; NMeA = CN[C@@H](C)C(=O)O; Pyrrolidide = C1CCN(*)C1; Ac5c = NC1(C(=O)O)CCCC1; Aze = O=C(O)[C@@H]1CCN1; Ac4c = NC1(C(=O)O)CCC1; Sar = CNCC(=O)O; Propyl = CCC*
Key:
[1] = test system: Human pancreatic cancer cell line AsPC-1; test: Measurement of AsPC-1 cell growth inhibition (AsPC-1 CGI); type: cell-based; settings: 96 h
Outline: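 AsPC-1 cells in 15% FBS RPMI-1640 were exposed to test compound for 96 hours at 37° C, with CellTiter-Glo as endpoint.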

[2] = molecular target: T1, Kras and SOS1 (biotin-tagged human Kras loaded with GDP, His-tagged human SOS1) (Homo sapiens, UniProt P01116, G12D); test: Protein-protein interaction inhibition between Kras and SOS1 (KrasGl2D-SOS PPI) using AlphaScreen; type: binding; settings: AlphaScreen; biotin-tagged human Kras loaded with GDP, His-tagged human SOS1; read-out: KRAS G12D-SOS PPI IC50
T1 construct: made in house; host or cells: E. coli (stated for Kras only)
T1 sequence (P01116 1-188 isoform P01116-2 G12D): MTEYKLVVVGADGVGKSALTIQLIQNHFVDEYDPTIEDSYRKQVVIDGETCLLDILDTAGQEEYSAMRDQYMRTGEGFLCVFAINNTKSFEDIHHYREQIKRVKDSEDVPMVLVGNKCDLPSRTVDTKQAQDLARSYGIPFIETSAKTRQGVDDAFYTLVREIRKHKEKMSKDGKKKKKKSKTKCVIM
Outline: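 Donor beads (nickel) hold His-SOS1; acceptor beads (streptavidin) hold biotin-Kras bound to GDP. Signal measured at 520-620 nm following 680 nm excitation.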

| Structure (SMILES) | IC50 [1] | IC50 [2] |
| --- | --- | --- |
| CC[C@H](C)[C@@H]1NC(=O)[C@H](CC(C)C)N(C)C(=O)C[C@@H](C(=O)N(C)C)N(C)C(=O)[C@H]([C@@H](C)CC)N(C)C(=O)C2(CCCC2)NC(=O)[C@H](CCC(=O)NC)N(C)C(=O)[C@H](CCc2ccc(C(F)(F)F)c(Cl)c2)NC(=O)CN(C)C(=O)[C@H](Cc2ccc(C)cc2)N(C)C(=O)[C@@H]2CCN2C(=O)[C@H](C)N(C)C1=O [Compound 1911] ([NMeL]I[NMeA][Aze][NMePhe(4-Me)][Sar][hPhe(3-Cl-4-CF3)][NMeE](NHMe)[Ac5c][NMeI][NMeD]-NMe2; lactam N-11) | 50 to 100 nM | 0.67 nM |
| CC[C@H](C)[C@@H]1NC(=O)[C@H](CC(C)C)N(C)C(=O)C[C@@H](C(=O)N(C)C)N(C)C(=O)[C@H](C2CCCC2)N(C)C(=O)C2(CCCC2)NC(=O)[C@H](Cc2ccncc2)N(C)C(=O)[C@H](CCc2ccc(C(F)(F)F)c(Cl)c2)NC(=O)CN(C)C(=O)[C@H](CC2CCCCC2)N(C)C(=O)[C@@H]2CCN2C(=O)[C@H](C)N(C)C1=O [Compound 1913] ([NMeL]I[NMeA][Aze][NMeCha][Sar][hPhe(3-Cl-4-CF3)][NMe4Pal][Ac5c][NMeGly(cPent)][NMeD]-NMe2; lactam N-11) | 100 to 500 nM | 1.1 nM |
| CC[C@H](C)[C@@H]1NC(=O)[C@H](CC)N(C)C(=O)C[C@@H](C(=O)N2CCOCC2)N(C)C(=O)[C@H](C2CCCCC2)N(C)C(=O)C2(CCCC2)NC(=O)[C@@H]2CCCN2C(=O)[C@H](CCc2ccc(C(F)(F)F)c(Cl)c2)NC(=O)CN(C)C(=O)[C@H](CC2CCCCC2)N(C)C(=O)CN(C)C(=O)CN(C)C1=O [Compound 1915] ([NMeAbu]I[Sar][Sar][NMeCha][Sar][hPhe(3-Cl-4-CF3)]P[Ac5c][NMeChg][NMeD]-Morpholide; lactam N-11) | 50 to 100 nM | 0.38 nM |
| CCC[C@H]1C(=O)N[C@@H]([C@@H](C)CC)C(=O)N(C)CC(=O)N(C)CC(=O)N(C)[C@@H](CC2CCCC2)C(=O)N(C)CC(=O)N[C@@H](CCc2ccc(C(F)(F)F)c(Cl)c2)C(=O)N2CCC[C@H]2C(=O)NC2(CCCC2)C(=O)N(C)[C@@H](C2CCCCC2)C(=O)N(C)[C@H](C(=O)N2C3CCC2COC3)CC(=O)N1C [Compound 1916] ([NMeNva]I[Sar][Sar][NMeAla(cPent)][Sar][hPhe(3-Cl-4-CF3)]P[Ac5c][NMeChg][NMeD]-{3Oxa8azabicyclo(3.2.1)octane}; lactam N-11) | 100 to 500 nM | 0.99 nM |
| CC[C@H](C)[C@@H]1NC(=O)[C@H](CC(C)C)N(C)C(=O)C[C@@H](C(=O)N(C)C)N(C)C(=O)[C@H](C2CCCC2)N(C)C(=O)C2(CCCC2)NC(=O)[C@H](CCC(=O)NC)N(C)C(=O)[C@H](CCc2ccc(C(F)(F)F)c(Cl)c2)NC(=O)CN(C)C(=O)[C@H](CC2CCCCC2)N(C)C(=O)[C@@H]2CCN2C(=O)[C@H](C)N(C)C1=O [Compound 1921] ([NMeL]I[NMeA][Aze][NMeCha][Sar][hPhe(3-Cl-4-CF3)][NMeE](NHMe)[Ac5c][NMeGly(cPent)][NMeD]-NMe2; lactam N-11) | 100 to 500 nM | 0.83 nM |
| CC[C@H](C)[C@@H]1NC(=O)[C@H](CC(C)C)N(C)C(=O)C[C@@H](C(=O)N2CCOCC2)N(C)C(=O)[C@H](C2CCCCC2)N(C)C(=O)C2(CCCC2)NC(=O)[C@@H]2CCCN2C(=O)[C@H](CCc2ccc(C(F)(F)F)c(Cl)c2)NC(=O)CN(C)C(=O)[C@H](CC2CCCC2)N(C)C(=O)CN(C)C(=O)CN(C)C1=O [Compound 1923] ([NMeL]I[Sar][Sar][NMeAla(cPent)][Sar][hPhe(3-Cl-4-CF3)]P[Ac5c][NMeChg][NMeD]-Morpholide; lactam N-11) | 50 to 100 nM | 0.89 nM |
| CC[C@H](C)[C@@H]1NC(=O)[C@H](CC(C)C)N(C)C(=O)C[C@@H](C(=O)N(C)C)N(C)C(=O)[C@H]([C@@H](C)CC)N(C)C(=O)C2(CCCC2)NC(=O)[C@H](Cc2ccccc2C)N(C)C(=O)[C@H](CCc2ccc(C(F)(F)F)c(Cl)c2)NC(=O)CN(C)C(=O)[C@H](Cc2ccc(C)cc2)N(C)C(=O)[C@@H]2CCN2C(=O)[C@H](C)N(C)C1=O [Compound 1924] ([NMeL]I[NMeA][Aze][NMePhe(4-Me)][Sar][hPhe(3-Cl-4-CF3)][NMePhe(2-Me)][Ac5c][NMeI][NMeD]-NMe2; lactam N-11) | 100 to 500 nM | 5.1 nM |
| CC[C@H](C)[C@@H]1NC(=O)[C@H](CC(C)C)N(C)C(=O)C[C@@H](C(=O)N(C)C)N(C)C(=O)[C@H](C2CCCC2)N(C)C(=O)C2(CCCC2)NC(=O)[C@H](Cc2ccc(C(F)F)cc2)N(C)C(=O)[C@H](CCc2ccc(C(F)(F)F)c(Cl)c2)NC(=O)CN(C)C(=O)[C@H](CC2CCCCC2)N(C)C(=O)[C@@H]2CCN2C(=O)[C@H](C)N(C)C1=O [Compound 1926] ([NMeL]I[NMeA][Aze][NMeCha][Sar][hPhe(3-Cl-4-CF3)][X25][Ac5c][NMeGly(cPent)][NMeD]-NMe2; lactam N-11) | 100 to 500 nM | 21 nM |
| CC(C)C[C@H]1C(=O)N[C@@H](C(C)C)C(=O)N(C)CC(=O)N(C)CC(=O)N(C)[C@@H](CC2CCCCC2)C(=O)N(C)CC(=O)N[C@@H](CCc2ccc(C(F)(F)F)c(Cl)c2)C(=O)N2CCC[C@H]2C(=O)NC2(CCCC2)C(=O)N(C)[C@@H](C2CCCCC2)C(=O)N(C)[C@H](C(=O)N2C3CCC2COC3)CC(=O)N1C [Compound 1928] ([NMeL]V[Sar][Sar][NMeCha][Sar][hPhe(3-Cl-4-CF3)]P[Ac5c][NMeChg][NMeD]-{3Oxa8azabicyclo(3.2.1)octane}; lactam N-11) | 100 to 500 nM | 0.5 nM |
| CCCOC[C@H]1C(=O)N(C)CC(=O)N[C@@H](CCc2ccc(C(F)(F)F)c(Cl)c2)C(=O)N2CCC[C@H]2C(=O)NC2(CCCC2)C(=O)N(C)[C@@H](C2CCCCC2)C(=O)N(C)[C@H](C(=O)N2CCCC2)CC(=O)N(C)[C@@H](CC)C(=O)N[C@@H]([C@@H](C)CC)C(=O)N(C)CC(=O)N(C)CC(=O)N1C [Compound 1929] ([NMeAbu]I[Sar][Sar][NMeS](Propyl)[Sar][hPhe(3-Cl-4-CF3)]P[Ac5c][NMeChg][NMeD]-Pyrrolidide; lactam N-11) | 100 to 500 nM | 0.61 nM |
| CC[C@H](C)[C@@H]1NC(=O)[C@H](CC(C)C)N(C)C(=O)C[C@@H](C(=O)N(C)C)N(C)C(=O)[C@H]([C@@H](C)CC)N(C)C(=O)C2(CCCC2)NC(=O)[C@H](Cc2ccc(C(F)F)cc2)N(C)C(=O)[C@H](CCc2ccc(C(F)(F)F)c(Cl)c2)NC(=O)CN(C)C(=O)[C@H](Cc2ccc(C)cc2)N(C)C(=O)[C@@H]2CCN2C(=O)[C@H](C)N(C)C1=O [Compound 1930] ([NMeL]I[NMeA][Aze][NMePhe(4-Me)][Sar][hPhe(3-Cl-4-CF3)][X25][Ac5c][NMeI][NMeD]-NMe2; lactam N-11) | 20 to 50 nM | 3.6 nM |
| CC[C@H](C)[C@@H]1NC(=O)[C@H](CC)N(C)C(=O)C[C@@H](C(=O)N2CCCC2)N(C)C(=O)[C@H](C2CCCCC2)N(C)C(=O)C2(CCCC2)NC(=O)[C@@H]2CCCN2C(=O)[C@H](CCc2ccc(C(F)(F)F)c(Cl)c2)NC(=O)CN(C)C(=O)[C@H](CC2CCCC2)N(C)C(=O)CN(C)C(=O)CN(C)C1=O [Compound 1931] ([NMeAbu]I[Sar][Sar][NMeAla(cPent)][Sar][hPhe(3-Cl-4-CF3)]P[Ac5c][NMeChg][NMeD]-Pyrrolidide; lactam N-11) | 100 to 500 nM | 0.56 nM |
| CC[C@H](C)[C@@H]1NC(=O)[C@H](CC(C)C)N(C)C(=O)C[C@@H](C(=O)N2C3CCC2COC3)N(C)C(=O)[C@H](C2CCCCC2)N(C)C(=O)C2(CCCC2)NC(=O)[C@@H]2CCCN2C(=O)[C@H](CCc2ccc(C(F)(F)F)c(Cl)c2)NC(=O)CN(C)C(=O)[C@H](Cc2ccc(C(F)(F)F)cc2)N(C)C(=O)CN(C)C(=O)CN(C)C1=O [Compound 1932] ([NMeL]I[Sar][Sar][NMePhe(4-CF3)][Sar][hPhe(3-Cl-4-CF3)]P[Ac5c][NMeChg][NMeD]-{3Oxa8azabicyclo(3.2.1)octane}; lactam N-11) | 50 to 100 nM | 1.1 nM |
| CCC[C@H]1C(=O)N[C@@H]([C@@H](C)CC)C(=O)N(C)CC(=O)N(C)CC(=O)N(C)[C@@H](CC2CCCCC2)C(=O)N(C)CC(=O)N[C@@H](CCc2ccc(C(F)(F)F)c(Cl)c2)C(=O)N2CCC[C@H]2C(=O)NC2(CCCC2)C(=O)N(C)[C@@H](C2CCCCC2)C(=O)N(C)[C@H](C(=O)N2C3CCC2COC3)CC(=O)N1C [Compound 1933] ([NMeNva]I[Sar][Sar][NMeCha][Sar][hPhe(3-Cl-4-CF3)]P[Ac5c][NMeChg][NMeD]-{3Oxa8azabicyclo(3.2.1)octane}; lactam N-11) | 50 to 100 nM | 0.59 nM |
| CC[C@H](C)[C@@H]1NC(=O)[C@H](CC(C)C)N(C)C(=O)C[C@@H](C(=O)N2CCOCC2)N(C)C(=O)[C@H](C(C)C)N(C)C(=O)C2(CCCC2)NC(=O)[C@@H]2CCCN2C(=O)[C@H](CCc2ccc(C(F)(F)F)c(Cl)c2)NC(=O)CN(C)C(=O)[C@H](CC2CCCCC2)N(C)C(=O)CN(C)C(=O)CN(C)C1=O [Compound 1934] ([NMeL]I[Sar][Sar][NMeCha][Sar][hPhe(3-Cl-4-CF3)]P[Ac5c][NMeV][NMeD]-Morpholide; lactam N-11) | 100 to 500 nM | 1 nM |
| CC[C@H](C)[C@@H]1NC(=O)[C@H](CC(C)C)N(C)C(=O)C[C@@H](C(=O)N2C3CCC2COC3)N(C)C(=O)[C@H](C2CCCCC2)N(C)C(=O)C2(CCC2)NC(=O)[C@@H]2CCCN2C(=O)[C@H](CCc2ccc(C(F)(F)F)c(Cl)c2)NC(=O)CN(C)C(=O)[C@H](CC2CCCCC2)N(C)C(=O)CN(C)C(=O)CN(C)C1=O [Compound 1936] ([NMeL]I[Sar][Sar][NMeCha][Sar][hPhe(3-Cl-4-CF3)]P[Ac4c][NMeChg][NMeD]-{3Oxa8azabicyclo(3.2.1)octane}; lactam N-11) | 20 to 50 nM | 0.68 nM |
